Where only a bound is given, the exact number is not on record here.

Broadly, the IC50 is the point on the concentration scale where inhibition reaches its midpoint. What is called inhibition is how much of the control response was suppressed.

Tested on in the first data set: not listed separately
The data set can be described thus: Cytotoxicity against human RPMI8226 cells assessed as reduction in cell viability after 72 hrs by MTT assay. It counts as functional, cell-based. The note with it: RPMI-8226, 72 h. In general terms: Tetrazolium dyes change colour on reduction, which living cells bring about.
For `Cc1c(C)c2c(c(C)c1O)CC[C@@](C)(CCC[C@H](C)CCC[C@H](C)CCCC(C)C)O2` [ALPHA-TOCOPHEROL], the IC50 is more than 300 µM.

Tested on in another data set: not listed separately
The data set can be described thus: Cytotoxicity against hamster AG17-1 cells assessed as reduction in cell viability after 72 hrs by MTT assay. The note with it: Chinese hamster. It counts as toxicity, cell-based, Cricetulus griseus.
On to `Cc1c(C)c2c(c(C)c1O)CC[C@@](C)(CCC[C@H](C)CCC[C@H](C)CCCC(C)C)O2` [ALPHA-TOCOPHEROL], for which the half-inhibitory concentration (IC50) at 72 h is more than 300 µM.

Tested on in a further data set: not listed separately
Briefly: Cytotoxicity against human CEM13 cells assessed as reduction in cell viability after 72 hrs by MTT assay. It counts as functional, cell-based. The note with it: CEM13, 72 h.
Consider `Cc1c(C)c2c(c(C)c1O)CC[C@@](C)(CCC[C@H](C)CCC[C@H](C)CCCC(C)C)O2` [ALPHA-TOCOPHEROL], for which the IC50 is more than 300 µM.

For a further data set, the system named is Salmonella enterica subsp. enterica serovar Typhimurium. Briefly: Antioxidant activity in Salmonella typhimurium TA102 harboring […] mutant assessed as inhibition of t-BuO2H-dependant mutant formation at 30 uM preincubated with compound followed by t-BuO2H addition after 48 hrs by Ames test. The class given is functional.
Conditions: not given
For the compound `Cc1c(C)c2c(c(C)c1O)CC[C@@](C)(CCC[C@H](C)CCC[C@H](C)CCCC(C)C)O2` [ALPHA-TOCOPHEROL], the inhibition was found to be 15%.

Tested on in a further data set: not listed separately
Briefly: Cytotoxicity against human CEM13 cells assessed as reduction in cell viability at 300 uM after 72 hrs by MTT assay. The note with it: CEM13, 72 h. It counts as functional.
Consider `Cc1c(C)c2c(c(C)c1O)CC[C@@](C)(CCC[C@H](C)CCC[C@H](C)CCCC(C)C)O2` [ALPHA-TOCOPHEROL], for which the inhibition at 300 µM amounted to 35%.

For another data set, the system named is Salmonella enterica subsp. enterica serovar Typhimurium. Briefly: Antioxidant activity in Salmonella typhimurium TA102 harboring […] mutant assessed as inhibition of t-BuO2H-dependant mutant formation at 0.3 uM preincubated with compound followed by t-BuO2H addition after 48 hrs by Ames test. It counts as functional.
Conditions: not given
As for `Cc1c(C)c2c(c(C)c1O)CC[C@@](C)(CCC[C@H](C)CCC[C@H](C)CCCC(C)C)O2` [ALPHA-TOCOPHEROL], the inhibition was found to be 6%.

In a further data set the test system is Salmonella typhimurium. Briefly: Genotoxicity in Salmonella typhimurium TA102 harboring […] mutant assessed as frequency of reversion from histidine auxotrophy to prototrophy at 0.35 mM after 48 hrs by Ames test (reference value: 209 +/- 10 No _unit). It counts as toxicity, organism-based. The note with it: salmonella enterica subsp. enterica serovar typhimurium, 350 µM. (The Ames test uses bacterial strains that need an amino acid and regain growth without it when mutated back.)
Regarding `CC(C)(C)OO` [TERT-BUTYL HYDROPEROXIDE], the Activity is 482.

Tested on in the next data set: not listed separately
The data set can be described thus: Cytotoxicity against human MCF7 cells assessed as reduction in cell viability at 300 uM after 72 hrs by MTT assay. The class given is functional. The following applies: MCF7, 72 h.
As for `Cc1c(C)c2c(c(C)c1O)CC[C@@](C)(CCC[C@H](C)CCC[C@H](C)CCCC(C)C)O2` [ALPHA-TOCOPHEROL], the inhibition at 300 µM amounted to 37%.

Tested on in a further data set: not listed separately
The data set can be described thus: Cytotoxicity against hamster AG17-1 cells assessed as reduction in cell viability at 300 uM after 72 hrs by MTT assay. The following applies: Chinese hamster, read-out: INH. The class given is toxicity, cell-based, Cricetulus griseus.
As for `Cc1c(C)c2c(c(C)c1O)CC[C@@](C)(CCC[C@H](C)CCC[C@H](C)CCCC(C)C)O2` [ALPHA-TOCOPHEROL], the cytotoxicity at 72 h, 300 µM amounted to 12%.

Tested on in the next data set: not listed separately
The data set can be described thus: Cytotoxicity against human HepG2 cells assessed as reduction in cell viability after 72 hrs by MTT assay. The note with it: HepG2, 72 h. It counts as functional, cell-based.
Take `Cc1c(C)c2c(c(C)c1O)CC[C@@](C)(CCC[C@H](C)CCC[C@H](C)CCCC(C)C)O2` [ALPHA-TOCOPHEROL]: the IC50 was more than 300 µM.

A further data set concerns Salmonella enterica subsp. enterica serovar Typhimurium. The data set can be described thus: Antioxidant activity in Salmonella typhimurium TA102 harboring […] mutant assessed as inhibition of t-BuO2H-dependant mutant formation at 3 uM preincubated with compound followed by t-BuO2H addition after 48 hrs by Ames test.
Conditions: not given
It counts as functional.
With `Cc1c(C)c2c(c(C)c1O)CC[C@@](C)(CCC[C@H](C)CCC[C@H](C)CCCC(C)C)O2` [ALPHA-TOCOPHEROL], the inhibition worked out at 13%.

Tested on in the next data set: not listed separately
The data set can be described thus: Genotoxicity in Escherichia coli PQ37 expressing lacZ gene assessed as ratio of inducible beta-galactosidase activity to alkaline phosphatase activity at 1 mM after 2 hrs by SOS-chromotest relative to control. It counts as toxicity. The following applies: Escherichia coli PQ37 cells expressing lacZ gene, read-out: FC.
Turning to `CC(C)(C)OO` [TERT-BUTYL HYDROPEROXIDE], the fold induction at 2 h, 1000 µM turned out to be 11.6.

Tested on in the next data set: not listed separately
The data set can be described thus: Cytotoxicity against human RPMI8226 cells assessed as reduction in cell viability at 300 uM after 72 hrs by MTT assay. The class given is functional. The following applies: RPMI-8226, 72 h.
In the case of `Cc1c(C)c2c(c(C)c1O)CC[C@@](C)(CCC[C@H](C)CCC[C@H](C)CCCC(C)C)O2` [ALPHA-TOCOPHEROL], the inhibition at 300 µM is 0%.

Tested on in another data set: not listed separately
Briefly: Genotoxicity in Escherichia coli PQ37 expressing lacZ gene assessed as ratio of inducible beta-galactosidase activity to alkaline phosphatase activity at 3 mM after 2 hrs by SOS-chromotest relative to control. The note with it: Escherichia coli PQ37 cells expressing lacZ gene, read-out: FC. It counts as toxicity.
`Cc1c(C)c2c(c(C)c1O)CC[C@@](C)(CCC[C@H](C)CCC[C@H](C)CCCC(C)C)O2` [ALPHA-TOCOPHEROL]: the fold induction at 2 h, 3000 µM was 1.28.

Tested on in a further data set: not listed separately
The data set can be described thus: Cytotoxicity against mouse LMTK cells assessed as reduction in cell viability after 72 hrs by MTT assay. It counts as toxicity.
Conditions: not given
Regarding `Cc1c(C)c2c(c(C)c1O)CC[C@@](C)(CCC[C@H](C)CCC[C@H](C)CCCC(C)C)O2` [ALPHA-TOCOPHEROL], the IC50 at 72 h is more than 300 µM.

Tested on in a further data set: not listed separately
Briefly: Cytotoxicity against human MCF7 cells assessed as reduction in cell viability after 72 hrs by MTT assay. The following applies: MCF7, 72 h. It counts as functional, cell-based.
On to `Cc1c(C)c2c(c(C)c1O)CC[C@@](C)(CCC[C@H](C)CCC[C@H](C)CCCC(C)C)O2` [ALPHA-TOCOPHEROL], for which the concentration for half-maximal inhibition (IC50) is more than 300 µM.

Tested on in another data set: not listed separately
Briefly: Cytotoxicity against human HepG2 cells assessed as reduction in cell viability at 300 uM after 72 hrs by MTT assay. The class given is functional. The following applies: HepG2, 72 h.
In the case of `Cc1c(C)c2c(c(C)c1O)CC[C@@](C)(CCC[C@H](C)CCC[C@H](C)CCCC(C)C)O2` [ALPHA-TOCOPHEROL], the inhibition at 300 µM was determined as 0%.

Tested on in another data set: not listed separately
The data set can be described thus: Cytotoxicity against mouse LMTK cells assessed as reduction in cell viability at 300 uM after 72 hrs by MTT assay. It counts as toxicity. The following applies: read-out: INH.
For `Cc1c(C)c2c(c(C)c1O)CC[C@@](C)(CCC[C@H](C)CCC[C@H](C)CCCC(C)C)O2` [ALPHA-TOCOPHEROL], the cytotoxicity at 72 h, 300 µM worked out at 28%.

For another data set, the system named is Salmonella typhimurium. Briefly: Genotoxicity in Salmonella typhimurium TA102 harboring […] mutant assessed as frequency of reversion from histidine auxotrophy to prototrophy at 30 mM after 48 hrs by Ames test (reference value: 209 +/- 10 No _unit). The note with it: salmonella enterica subsp. enterica serovar typhimurium, 30000 µM. It counts as toxicity, organism-based.
As to `Cc1c(C)c2c(c(C)c1O)CC[C@@](C)(CCC[C@H](C)CCC[C@H](C)CCCC(C)C)O2` [ALPHA-TOCOPHEROL], the Activity amounted to 217.

Tested on in the next data set: not listed separately
The data set can be described thus: Cytotoxicity against human MT4 cells assessed as reduction in cell viability after 72 hrs by MTT assay. It counts as functional, cell-based. The following applies: MT4, 72 h.
Consider `Cc1c(C)c2c(c(C)c1O)CC[C@@](C)(CCC[C@H](C)CCC[C@H](C)CCCC(C)C)O2` [ALPHA-TOCOPHEROL], for which the IC50 came to 165 µM.

Tested on in a further data set: not listed separately
The data set can be described thus: Cytotoxicity against human U937 cells assessed as reduction in cell viability after 72 hrs by MTT assay. It counts as functional, cell-based. The note with it: U-937, 72 h.
For the compound `Cc1c(C)c2c(c(C)c1O)CC[C@@](C)(CCC[C@H](C)CCC[C@H](C)CCCC(C)C)O2` [ALPHA-TOCOPHEROL], the IC50 stood at 100 µM.

The record behind these values is ChEMBL document CHEMBL3865792, “Antioxidant and antitumor activity of trolox, trolox succinate, and α-tocopheryl succinate conjugates with nitroxides” (Eur J Med Chem, 2016).
